Measured values reported in patent publication US20120040976A1, “SMALL MOLECULE IMMUNOMODULATORS FOR ALZHEIMER'S DISEASE” (HUMAN BIOMOLECULAR RESEARCH INSTITUTE, priority 2008, published 2012).

Legend:
[1] = system: MGAT3; experiment: MGAT3 expression in response to oxidative stress (H2O2) in neuroblastoma cells; format: cell-based, human; details: H2O2, data not shown
Experimental: Gene expression in response to oxidative stress. […] The neuroblastoma SHSY5Y and wtSOD^+ overexpressing cells were subjected to varying concentrations of hydrogen peroxide (H2O2; 0.5-5 mM) for varying times. After 1, 2, and 3 hours of incubation, cells were harvested, total RNAs were isolated, and prepared cDNAs were used in qPCR experiments to quantify normalized mRNA levels. MGAT3 expression in untransfected cells increased in relation to oxidative stress conditions, with peak expression (>200-fold increased) at 2-3 hours in the presence of 2.5 mM H2O2. Again, increased SOD1 expression appeared to potentiate MGAT3 expression, with higher maximal MGAT3 expression (>300-fold increased) observed in the wtSOD^+ line, and at lower H2O2 concentrations (e.g. 0.5 mM). […] Further, curcumins may potentiate the cellular response to oxidative stress and may therefore have a protective effect.

[2] = system: TLR 3; experiment: TLR 3 transcription ratio, AD patient / control PBMCs (qPCR); format: cell-based, human; details: Aβ stimulation
Experimental: (§1) qPCR reactions of cultured monocyte cDNAs. One μL total cellular cDNA per reaction is used in triplicate reactions for each test gene, and for each culture treatment. SYBR-Green reactions were run on a Continuous Fluorescence real-time thermocycler and analyzed. Cycle threshold (Ct) values are recorded for each replicate reaction, and are then averaged and normalized against mean Ct values from one or more control genes. Fold-expression differences relative to untreated cells are determined using the 2^−ΔΔCt method as previously described. Data from the curcumin concentration range are plotted in order to determine EC50 values (concentrations producing one-half maximal stimulant activity), which are used for comparisons of potency between different compounds. Data are also evaluated for each gene with regard to sensitivity, maximally effective concentration of curcuminoid, response to Aβ, and overall magnitude of fold-expression changes.
MGAT3 and/or TLR transcription were tested by qPCR in human monocyte cells treated with curcuminoids and compared the results to those treated with vehicle (Table 7). As discussed above, activation or up-regulation of macrophage MGAT3 or TLR's results in many functional outcomes, including the enhancement of […] and removal of Aβ, increased apoptosis, secretion of inflammatory cytokines, and other anti-AD antimicrobial activities. […] Thus, the ratio of MGAT3 or TLR transcription upon Aβ stimulation of human monocytes versus vehicle treatment provides an indicator and sensitive method to test the in vitro efficacy of drug candidates. […] The relative biological activity of the curcumin analogs in AD patient and control cells was ascertained in the in vitro Aβ assay described above (see Example 2).

[3] = system: TLR2; experiment: TLR2 gene expression by qPCR in U-937 human monocytic cells treated with curcumins plus Aβ; format: cell-based; details: human monocytic cells (U-937), curcumin plus Aβ
Experimental: Cell culture conditions for monocytic cell lines. Human and mouse monocyte cell lines are grown in RPMI-1640 medium with 10% fetal bovine serum (FBS), plus glutamine and pen/strep. For treatment with compounds (curcuminoids+/−Aβ), replicate sets of 0.5-1.0 mL cultures containing 1-2×10^6 cells are set up in the wells of 48-well tissue culture plates. Both replicate sets have at least one control well receiving no added curcuminoid to provide baseline expression controls for untreated, and Aβ-only treated cells. Remaining wells receive curcuminoid in a range of 10-fold serial dilutions in DMSO, typically from […] Cultures are incubated for 20-24 hours (“overnight”) at 37° C. in atmosphere with 5% CO2. After one overnight, to one of replicate sets of cultures is added Aβ (1-42) peptide to a final concentration of 5 μg/mL.
RNA isolation and cDNA synthesis. After the first overnight incubation in the presence of curcuminoid, cells from one replicate set of wells are collected by centifugation. RNAs are extracted from pelleted cells using miniprep column kits following manufacturer's protocol for animal cells. […] of total cellular RNA from each well is quantitated using a Nanodrop spectrophotometer, and first-strand total cDNA is prepared from 0.3-1.0 μg RNA by random-hexamer priming. Following the second 20 hr. incubation in the presence of Aβ, RNA extractions and cDNA synthesis are similarly performed.
Assay development. Gene-specific mRNA levels are determined using a real-time thermocycler, and by normalizing to expression of one or more control genes. Assays for quantifying mRNA levels are based on gene sequences reported in NCBI Genbank. PCR oligonucleotide primers are selected spanning introns to minimize the opportunity for amplication from any contaminating genomic DNA in the RNA preps. Oligonucleotides are typically tested and used at a concentration of 200 nM in qPCR reactions containing SYBR dye. Control reactions include template from cDNA synthesis reactions either + or − reverse transcriptase (RT), as well as no-template controls (ntc). All reactions are performed in triplicate. Reactions are typically run with 40 cycles of 95° C. (10 sec) and 58° C. (30 sec). Melt curves based on incremental 0.5° C. increases are determined for new assays to test for uniformity of amplified products. Reaction conditions are modified as needed depending on initial test results. ‘Working’ assays are selected based on clear RNA-dependent amplification and absence of product in ‘ntc’ reactions. The following assay primers are used: […]
as §1, with “Data from the curcumin concentration range are plotted in order to determine EC50 values (concentrations producing one-half maximal stimulant activity), which are used for comparisons of potency between different compounds.” left out, “changes. […]” for “changes.”

SMILES: O=C(/C=C(O)/C=C/c1ccc(O)cc1)/C=C/c1ccc(O)cc1 [Compound 1, 5-Hydroxy-1,7-bis-(4-hydroxy-phenyl)-hepta-1,4,6-trien-3-one, reference compound]
- Effect on MGAT3 expression in response to oxidative stress [1]: enhance MGAT3 expression
- Relative ratio of TLR 3 transcription in AD patient / control PBMC's [2]: TLR 3 ++ ((++) indicates a ratio of 1.5-2.0)
- Relative gene expression TLR2, increased expression relative to control cells [3]: + ((+) <20-fold)
